Test results from PubChem BioAssay (NCI).
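GI50 is the concentration that inhibits growth by half. The concentration for full growth arrest is given as TGI.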

Key:
Test in all cases: growth of human tumour cells (NCI), 384-well format
[1] = test system: 786-0 renal
[2] = test system: BT-549 breast
[3] = test system: CAKI-1 renal
[4] = test system: CCRF-CEM leukemia
[5] = test system: DU-145 prostate
[6] = test system: EKVX NSCLC
[7] = test system: HCC-2998 colon
[8] = test system: HCT-116 colon
[9] = test system: HCT-15 colon
[10] = test system: HL-60(TB) leukemia
[11] = test system: HOP-62 NSCLC
[12] = test system: IGROV1 ovarian
[13] = test system: K-562 leukemia
[14] = test system: KM12 colon
[15] = test system: LOX IMVI melanoma
[16] = test system: M14 melanoma
[17] = test system: MALME-3M melanoma
[18] = test system: MCF7 breast
[19] = test system: MDA-MB-231 breast
[20] = test system: MDA-MB-435 melanoma
[21] = test system: MDA-MB-468 breast
[22] = test system: MOLT-4 leukemia
[23] = test system: NCI-H226 lung
[24] = test system: NCI-H23 lung
[25] = test system: NCI-H322M lung
[26] = test system: NCI-H460 NSCLC
[27] = test system: NCI-H522 lung
[28] = test system: NCI/ADR-RES ovarian
[29] = test system: OVCAR-3 ovarian
[30] = test system: OVCAR-4 ovarian
[31] = test system: OVCAR-5 ovarian
[32] = test system: PC-3 prostate
[33] = test system: RPMI-8226 leukemia
[34] = test system: SF-268 CNS
[35] = test system: SF-295 CNS
[36] = test system: SF-539 CNS
[37] = test system: SK-MEL-2 melanoma
[38] = test system: SK-MEL-28 melanoma
[39] = test system: SK-MEL-5 melanoma
[40] = test system: SK-OV-3 ovarian
[41] = test system: SN12C renal
[42] = test system: SNB-75 CNS
[43] = test system: SR leukemia
[44] = test system: SW-620 colon
[45] = test system: T-47D breast
[46] = test system: TK-10 renal
[47] = test system: UACC-62 melanoma

CNCc1ccc(C)c(NC(=O)c2ccc(Nc3nc(-c4ccccc4)c4ccccc4n3)cc2)c1
GI50 [1]: 1500 nM | TGI [1]: 2840 nM | GI50 [2]: 1700 nM | TGI [2]: 3090 nM | GI50 [3]: 420 nM | TGI [3]: 1360 nM | GI50 [4]: 1580 nM | TGI [4]: 2940 nM | GI50 [5]: 1930 nM | TGI [5]: 3480 nM | GI50 [6]: 1570 nM | TGI [6]: 2950 nM | GI50 [7]: 1280 nM | TGI [7]: 2550 nM | GI50 [8]: 1730 nM | TGI [8]: 3160 nM | GI50 [9]: 1050 nM | TGI [9]: 2390 nM | GI50 [10]: 1040 nM | TGI [10]: 2400 nM | GI50 [11]: 1910 nM | TGI [11]: 3330 nM | GI50 [12]: 1810 nM | TGI [12]: 3600 nM | GI50 [13]: 1400 nM | TGI [13]: 2740 nM | GI50 [14]: 1420 nM | TGI [14]: 2750 nM | GI50 [15]: 1550 nM | TGI [15]: 2910 nM | GI50 [16]: 2030 nM | TGI [16]: 3470 nM | GI50 [17]: 1310 nM | TGI [17]: 2590 nM | GI50 [18]: 1480 nM | TGI [18]: 2850 nM | GI50 [19]: 1840 nM | TGI [19]: 3250 nM | GI50 [20]: 1910 nM | TGI [20]: 3340 nM | GI50 [21]: 1710 nM | TGI [21]: 3090 nM | GI50 [22]: 1510 nM | TGI [22]: 2850 nM | GI50 [23]: 1880 nM | TGI [23]: 3360 nM | GI50 [24]: 1830 nM | TGI [24]: 3270 nM | GI50 [25]: 1740 nM | TGI [25]: 3140 nM | GI50 [26]: 1360 nM | TGI [26]: 2710 nM | GI50 [27]: 1840 nM | TGI [27]: 3250 nM | GI50 [28]: 1860 nM | TGI [28]: 3330 nM | GI50 [29]: 1780 nM | TGI [29]: 3200 nM | GI50 [30]: 1860 nM | TGI [30]: 3400 nM | GI50 [31]: 2040 nM | TGI [31]: 3990 nM | GI50 [32]: 1690 nM | TGI [32]: 3160 nM | GI50 [33]: 1720 nM | TGI [33]: 3100 nM | GI50 [34]: 1770 nM | TGI [34]: 3170 nM | GI50 [35]: 1850 nM | TGI [35]: 3260 nM | GI50 [36]: 1710 nM | TGI [36]: 3100 nM | GI50 [37]: 1810 nM | TGI [37]: 3210 nM | GI50 [38]: 1690 nM | TGI [38]: 3060 nM | GI50 [39]: 1390 nM | TGI [39]: 2690 nM | GI50 [40]: 1780 nM | TGI [40]: 3180 nM | GI50 [41]: 1590 nM | TGI [41]: 2960 nM | GI50 [42]: 1850 nM | TGI [42]: 3300 nM | GI50 [43]: 342 nM | TGI [43]: 799 nM | GI50 [44]: 1850 nM | TGI [44]: 3280 nM | GI50 [45]: 1450 nM | TGI [45]: 2780 nM | GI50 [46]: 1810 nM | TGI [46]: 3290 nM | GI50 [47]: 1610 nM | TGI [47]: 2970 nM
